Laboratory results as given in publication PMC7615656 (European journal of pharmacology, 2010).

Assays:
[1] = target: recombinant rat α3β3γ2F77I receptors (Rattus norvegicus, UniProt P18508+P20236, F115I); experiment: Two-electrode voltage clamp of GABA-induced chloride currents in Xenopus oocytes; assay type: cell-based; settings: α3β3γ2F77I, ns = not significant
[2] = target: recombinant rat α1β3γ2 receptors (Rattus norvegicus, UniProt P18508+P62813); experiment: as above; assay type: cell-based; settings: α1β3γ2; for efficacy (% GABA EC3): ns = not significant
[3] = target: recombinant rat α2β3γ2F77I receptors (Rattus norvegicus, UniProt P18508+P23576, F115I); experiment: as above; assay type: cell-based; settings: α2β3γ2F77I, ns = not significant
recombinant rat α2β3γ2F77I receptors, sequence (P23576 29-451): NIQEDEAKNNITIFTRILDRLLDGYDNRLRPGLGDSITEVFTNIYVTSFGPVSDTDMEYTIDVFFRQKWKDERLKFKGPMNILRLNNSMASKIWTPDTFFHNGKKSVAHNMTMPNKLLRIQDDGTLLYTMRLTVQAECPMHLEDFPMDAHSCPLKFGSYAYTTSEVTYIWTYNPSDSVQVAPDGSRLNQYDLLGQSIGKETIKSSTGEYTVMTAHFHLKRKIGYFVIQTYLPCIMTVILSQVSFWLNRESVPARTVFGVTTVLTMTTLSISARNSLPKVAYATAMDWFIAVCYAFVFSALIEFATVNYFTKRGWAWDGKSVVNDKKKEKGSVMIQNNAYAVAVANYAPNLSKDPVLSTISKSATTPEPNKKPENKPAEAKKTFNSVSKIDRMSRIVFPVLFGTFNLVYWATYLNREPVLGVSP
recombinant rat α2β3γ2F77I receptors, sequence (P63079 26-473 partner): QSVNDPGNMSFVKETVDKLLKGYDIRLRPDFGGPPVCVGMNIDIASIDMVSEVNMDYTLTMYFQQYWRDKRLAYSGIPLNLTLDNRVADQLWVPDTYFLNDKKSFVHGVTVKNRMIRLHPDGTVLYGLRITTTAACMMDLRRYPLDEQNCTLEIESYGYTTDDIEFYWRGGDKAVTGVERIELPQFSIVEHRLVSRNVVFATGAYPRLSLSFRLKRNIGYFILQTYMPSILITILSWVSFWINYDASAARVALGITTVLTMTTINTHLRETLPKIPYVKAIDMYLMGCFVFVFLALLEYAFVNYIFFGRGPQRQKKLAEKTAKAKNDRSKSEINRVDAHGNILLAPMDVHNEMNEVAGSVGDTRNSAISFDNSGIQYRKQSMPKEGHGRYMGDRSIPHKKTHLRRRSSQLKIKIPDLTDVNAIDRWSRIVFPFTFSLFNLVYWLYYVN
recombinant rat α2β3γ2F77I receptors, sequence (P18508 39-466 F115I): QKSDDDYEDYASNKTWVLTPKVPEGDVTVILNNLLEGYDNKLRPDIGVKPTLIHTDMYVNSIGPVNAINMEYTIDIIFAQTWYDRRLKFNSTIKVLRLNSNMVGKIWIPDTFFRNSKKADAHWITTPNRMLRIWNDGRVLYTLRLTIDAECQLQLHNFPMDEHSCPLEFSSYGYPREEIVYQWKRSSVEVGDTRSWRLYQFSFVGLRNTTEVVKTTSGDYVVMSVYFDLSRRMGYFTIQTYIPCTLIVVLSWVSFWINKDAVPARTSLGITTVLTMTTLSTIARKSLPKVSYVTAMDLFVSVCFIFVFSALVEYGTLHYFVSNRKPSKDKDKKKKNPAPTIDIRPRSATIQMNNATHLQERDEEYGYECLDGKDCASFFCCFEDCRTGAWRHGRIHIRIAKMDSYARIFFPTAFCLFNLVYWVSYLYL

[4] = target: recombinant rat α6β3γ2F77I receptors (Rattus norvegicus, UniProt P18508+P30191, F115I); experiment: as above; assay type: cell-based; settings: ns = not significant
recombinant rat α6β3γ2F77I receptors, sequence (P30191 20-453): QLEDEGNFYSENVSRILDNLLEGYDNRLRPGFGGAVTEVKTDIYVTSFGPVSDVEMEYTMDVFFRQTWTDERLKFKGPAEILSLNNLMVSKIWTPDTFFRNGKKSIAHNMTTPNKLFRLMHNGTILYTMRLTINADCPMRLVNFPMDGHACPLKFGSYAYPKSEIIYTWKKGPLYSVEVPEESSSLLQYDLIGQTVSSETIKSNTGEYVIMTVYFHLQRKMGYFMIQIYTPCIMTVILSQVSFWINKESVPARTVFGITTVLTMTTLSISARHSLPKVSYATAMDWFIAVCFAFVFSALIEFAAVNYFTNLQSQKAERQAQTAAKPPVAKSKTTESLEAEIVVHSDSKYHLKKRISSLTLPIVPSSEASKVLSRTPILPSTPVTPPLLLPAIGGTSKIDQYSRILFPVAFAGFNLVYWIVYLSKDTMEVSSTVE
recombinant rat α6β3γ2F77I receptors, sequence (P63079 26-473 partner): as the sequence (P63079 26-473 partner) above
recombinant rat α6β3γ2F77I receptors, sequence (P18508 39-466 F115I): as the sequence (P18508 39-466 F115I) above

[5] = target: recombinant rat α2β3γ2 receptors (Rattus norvegicus, UniProt P18508+P23576); experiment: as above; assay type: cell-based; settings: α2β3γ2, ns = not significant
[6] = target: recombinant rat α4β3γ2F77I receptors (Rattus norvegicus, UniProt P18508+P28471, F115I); experiment: as above; assay type: cell-based; settings: ns = not significant
[7] = target: recombinant rat α4β3γ2 receptors (Rattus norvegicus, UniProt P18508+P28471); experiment: as above; assay type: cell-based; settings: for efficacy (% GABA EC3): ns = not significant
[8] = target: recombinant rat α5β3γ2 receptors (Rattus norvegicus, UniProt P18508+P19969); experiment: as above; assay type: cell-based; settings: α5β3γ2; for efficacy (% GABA EC3): ns = not significant
[9] = system: GABAA receptors containing the γ2F77I mutation; experiment: Modulation of GABA EC3 in receptors containing the γ2F77I mutation; assay type: cell-based, rat
[10] = target: recombinant rat α5β3γ2F77I receptors (Rattus norvegicus, UniProt P18508+P19969, F115I); experiment: Two-electrode voltage clamp of GABA-induced chloride currents in Xenopus oocytes; assay type: cell-based; settings: α5β3γ2F77I, ns = not significant
[11] = target: recombinant rat α6β3γ2 receptors (Rattus norvegicus, UniProt P18508+P30191); experiment: as above; assay type: cell-based; settings: α6β3γ2; for efficacy (% GABA EC3): ns = not significant
recombinant rat α6β3γ2 receptors, sequence (P30191 20-453): as the sequence (P30191 20-453) above
recombinant rat α6β3γ2 receptors, sequence (P63079 26-473 partner): as the sequence (P63079 26-473 partner) above
recombinant rat α6β3γ2 receptors, sequence (P18508 39-466): as the sequence (P18508 39-466 F115I) above, with I77F counted along it

[12] = target: recombinant rat α3β3γ2 receptors (Rattus norvegicus, UniProt P18508+P20236); experiment: as above; assay type: cell-based; settings: α3β3γ2, ns = not significant
[13] = target: recombinant rat α1β3γ2F77I receptors (Rattus norvegicus, UniProt P18508+P62813, F115I); experiment: as above; assay type: cell-based; settings: α1β3γ2F77I, ns = not significant
[14] = system: GABAA receptors of mice containing the point mutation γ2F77I; settings: receptor binding; ref Ogris et al., 2004; cited from earlier work

For `CCOC(=O)c1ncn2c1CN(C)C(=O)c1cc(F)ccc1-2` [Ro15–1788, ethyl-8-fluoro-5,6-dihydro-5-methyl-6-oxo-4H-imidazo[1,5-a][1,4]benzodiazepine-3-carboxylate], the “efficacy (% GABA EC3)” value ([1]; 10 nM) was “ns”, the “efficacy (% GABA EC3)” value ([1]; 100 nM) was 106 ± 1 % GABA EC3 and the “efficacy (% GABA EC3)” value ([1]; 1 μM) was 118 ± 2 % GABA EC3. The “efficacy (% GABA EC3)” value ([1]; 10 μM) was 139 ± 4 % GABA EC3, the “efficacy (% GABA EC3)” value ([2]; 10 nM) was “ns” and the “efficacy (% GABA EC3)” value ([2]; 100 nM) was “ns”. For the same compound, the “efficacy (% GABA EC3)” value ([2]; 1 μM) was “ns”, the “efficacy (% GABA EC3)” value ([2]; 10 μM) was “ns” and the “maximal effect on GABA-induced chloride flux (GABA EC3), % of control current” value (from here on “maximal effect … % of control current”) ([2]; control current = 100%) was “no significant effects”. The “efficacy (% GABA EC3)” value ([3]; 10 nM) was “ns”, the “efficacy (% GABA EC3)” value ([3]; 100 nM) was “ns” and the “efficacy (% GABA EC3)” value ([3]; 1 μM) was “ns”. For the same compound, the “efficacy (% GABA EC3)” value ([3]; 10 μM) was “ns”, the “efficacy (% GABA EC3)” value ([4]; 10 nM) was “ns” and the “efficacy (% GABA EC3)” value ([4]; 100 nM) was “ns”. For the same compound, the “efficacy (% GABA EC3)” value ([4]; 1 μM) was “ns”, the “efficacy (% GABA EC3)” value ([4]; 10 μM) was “ns” and the “efficacy (% GABA EC3)” value ([5]; 10 nM) was 121 ± 2 % GABA EC3. The “efficacy (% GABA EC3)” value ([5]; 100 nM) was 128 ± 4 % GABA EC3, the “efficacy (% GABA EC3)” value ([5]; 1 μM) was 130 ± 5 % GABA EC3 and the “efficacy (% GABA EC3)” value ([5]; 10 μM) was 133 ± 7 % GABA EC3. The “efficacy (% GABA EC3)” value ([6]; 10 nM) was “ns”, the “efficacy (% GABA EC3)” value ([6]; 100 nM) was “ns” and the “efficacy (% GABA EC3)” value ([6]; 1 μM) was “ns”. The “efficacy (% GABA EC3)” value ([6]; 10 μM) was “ns”, the EC50 [7] was greater than 232 nM and the “efficacy (% GABA EC3)” value ([7]; 10 nM, α4β3γ2) was “ns”. For the same compound, the “efficacy (% GABA EC3)” value ([7]; 100 nM, α4β3γ2) was 132 ± 8 % GABA EC3, the “efficacy (% GABA EC3)” value ([7]; 1 μM, α4β3γ2) was 162 ± 19 % GABA EC3 and the “efficacy (% GABA EC3)” value ([7]; 10 μM, α4β3γ2) was 181 ± 10 % GABA EC3. For the same compound, the “efficacy (% GABA EC3)” value ([8]; 10 nM) was “ns”, the “efficacy (% GABA EC3)” value ([8]; 100 nM) was “ns” and the “efficacy (% GABA EC3)” value ([8]; 1 μM) was “ns”. For the same compound, the “efficacy (% GABA EC3)” value ([8]; 10 μM) was “ns”, the “maximal effect … % of control current” value ([8]; control current = 100%) was “no significant effects” and the “activity in the mutated receptors” value ([9]; up to 100 nM) was “inactive”. For the same compound, the “efficacy (% GABA EC3)” value ([10]; 10 nM) was “ns”, the “efficacy (% GABA EC3)” value ([10]; 100 nM) was “ns” and the “efficacy (% GABA EC3)” value ([10]; 1 μM) was “ns”. The “efficacy (% GABA EC3)” value ([10]; 10 μM) was “ns”, the “efficacy (% GABA EC3)” value ([11]; 10 nM) was “ns” and the “efficacy (% GABA EC3)” value ([11]; 100 nM) was 128 ± 18 % GABA EC3. The “efficacy (% GABA EC3)” value ([11]; 1 μM) was 166 ± 9 % GABA EC3, the “efficacy (% GABA EC3)” value ([11]; 10 μM) was 179 ± 6 % GABA EC3 and the “efficacy (% GABA EC3)” value ([12]; 10 nM) was 128 ± 4 % GABA EC3. For the same compound, the “efficacy (% GABA EC3)” value ([12]; 100 nM) was 148 ± 7 % GABA EC3, the “efficacy (% GABA EC3)” value ([12]; 1 μM) was 156 ± 8 % GABA EC3 and the “efficacy (% GABA EC3)” value ([12]; 10 μM) was 157 ± 8 % GABA EC3. For the same compound, the “efficacy (% GABA EC3)” value ([13]; 10 nM) was “ns”, the “efficacy (% GABA EC3)” value ([13]; 100 nM) was “ns” and the “efficacy (% GABA EC3)” value ([13]; 1 μM) was “ns”. The “efficacy (% GABA EC3)” value ([13]; 10 μM) was “ns”.
For `Cc1ccc(-c2nc3ccc(C)cn3c2CC(=O)N(C)C)cc1` [Zolpidem, N,N,6-trimethyl-2-(4-methylphenyl)imidazo[1,2-a]-pyridine-3-acetamide], the “efficacy (% GABA EC3)” value ([1]; 100 nM) was “ns”, the “efficacy (% GABA EC3)” value ([1]; 1 μM) was “ns” and the “efficacy (% GABA EC3)” value ([1]; 10 μM) was 145 ± 5 % GABA EC3. The “efficacy (% GABA EC3)” value ([3]; 100 nM) was “ns”, the “efficacy (% GABA EC3)” value ([3]; 1 μM) was “ns” and the “efficacy (% GABA EC3)” value ([3]; 10 μM) was 145 ± 3 % GABA EC3. The “efficacy (% GABA EC3)” value ([7]; 100 nM, α4β3γ2) was “ns”, the “efficacy (% GABA EC3)” value ([7]; 1 μM, α4β3γ2) was “ns” and the “efficacy (% GABA EC3)” value ([7]; 10 μM, α4β3γ2) was “ns”. For the same compound, the “maximal effect … % of control current” value ([7]; α4β3γ2, control current = 100%) was “did not significantly enhance”, the “efficacy (% GABA EC3)” value ([8]; 100 nM) was “ns” and the “efficacy (% GABA EC3)” value ([8]; 1 μM) was “ns”. The “efficacy (% GABA EC3)” value ([8]; 10 μM) was “ns”, the “efficacy (% GABA EC3)” value ([8]; 10 μM, listed as zolpidem) was “unable to modulate” and the “stimulation of GABA-induced chloride flux” value ([9]; 10 μM, some γ2F77I receptors) was 20–40%. For the same compound, the “efficacy (% GABA EC3)” value ([10]; 100 nM) was “ns”, the “efficacy (% GABA EC3)” value ([10]; 1 μM) was “ns” and the “efficacy (% GABA EC3)” value ([11]; 10 μM) was “ns”. The “maximal effect … % of control current” value ([11]; control current = 100%) was “did not significantly enhance”, the “shift in affinity caused by γ2F77I” value [14] was “approximately 300 fold” and the “efficacy (% GABA EC3)” value ([13]; 100 nM) was “ns”. For the same compound, the “efficacy (% GABA EC3)” value ([13]; 1 μM) was “ns” and the “efficacy (% GABA EC3)” value ([13]; 10 μM) was 142 ± 8 % GABA EC3.
